# From ChEMBL document CHEMBL1201862, “PubChem BioAssay data set” (2004)
# Counter-ions that a name gives are not always drawn. Active and inactive are the calls of the source.
# Assays:
# [1] = system: P388/ADR; assay: cells; type: functional; conditions: Mus musculus
# [2] = system: P388; assay: cells; type: functional; conditions: Mus musculus
# [3] = system: SN12K1; assay: cells; type: functional; conditions: Homo sapiens
# [4] = biological target: Eukaryotic translation initiation factor 4E (Mus musculus, UniProt P63073); assay: blockers of eIF4G binding by eIF4E – biochemical, TR-FRET, dose response (AID 855); type: functional;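 also: potency for disrupting eIF4E binding to eIF4GI seen as loss of FRET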
# Chain of Eukaryotic translation initiation factor 4E (P63073 whole entry): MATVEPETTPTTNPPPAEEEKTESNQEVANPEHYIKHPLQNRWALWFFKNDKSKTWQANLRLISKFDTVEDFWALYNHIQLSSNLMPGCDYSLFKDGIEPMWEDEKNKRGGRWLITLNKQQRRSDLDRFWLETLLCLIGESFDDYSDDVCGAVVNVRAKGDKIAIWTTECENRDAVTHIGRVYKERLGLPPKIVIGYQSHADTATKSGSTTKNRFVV
# [5] = biological target: Cytochrome P450 2D6 (Homo sapiens, UniProt P10635);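 also: CYP2D6 member of a cytochrome P450 panel assay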
# Chain of Cytochrome P450 2D6 (P10635 whole entry): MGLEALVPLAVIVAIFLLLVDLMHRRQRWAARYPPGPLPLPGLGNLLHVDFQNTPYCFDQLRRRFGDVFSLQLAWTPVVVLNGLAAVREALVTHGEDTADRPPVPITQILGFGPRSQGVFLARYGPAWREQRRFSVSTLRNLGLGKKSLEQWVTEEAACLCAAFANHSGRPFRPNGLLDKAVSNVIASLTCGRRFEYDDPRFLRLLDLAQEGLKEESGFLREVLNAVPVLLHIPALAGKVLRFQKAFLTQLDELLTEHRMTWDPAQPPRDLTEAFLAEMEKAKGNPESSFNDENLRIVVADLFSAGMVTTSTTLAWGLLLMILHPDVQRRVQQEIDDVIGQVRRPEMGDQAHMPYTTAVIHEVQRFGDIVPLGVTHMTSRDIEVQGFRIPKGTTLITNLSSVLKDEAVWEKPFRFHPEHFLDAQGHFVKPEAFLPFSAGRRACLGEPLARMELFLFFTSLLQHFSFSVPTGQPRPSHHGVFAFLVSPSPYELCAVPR
# [6] = cells; type: functional
# [7] = biological target: T1, Calpain-2 catalytic subunit (Sus scrofa, UniProt P43367); assay: m-calpain protease blockers, concentration series – biochemical, fluorogenic peptide substrate, dose response (AID 1420); type: functional
# T1 sequence (P43367 whole entry): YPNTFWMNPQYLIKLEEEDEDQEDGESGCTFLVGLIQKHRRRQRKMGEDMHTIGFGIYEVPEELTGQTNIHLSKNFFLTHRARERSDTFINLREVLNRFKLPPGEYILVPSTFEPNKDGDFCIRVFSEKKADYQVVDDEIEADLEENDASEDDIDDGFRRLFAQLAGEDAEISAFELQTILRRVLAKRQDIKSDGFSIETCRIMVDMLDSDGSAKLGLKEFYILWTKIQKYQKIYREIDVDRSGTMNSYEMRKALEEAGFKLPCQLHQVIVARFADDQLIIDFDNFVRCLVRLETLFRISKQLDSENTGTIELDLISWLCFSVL
# [8] = THP-1 cell cytotoxicity, dose response, cytotoxicity control for non-replicating M. tuberculosis project (AID 489025); type: functional
# [9] = biological target: T2, Carboxy-terminal domain RNA polymerase II polypeptide A small phosphatase 1 (Homo sapiens, UniProt Q9GZU7); assay: CTDSP1 inhibitors, concentration-response, biochemical, absorbance readout, ultra-high-throughput screen actives (AID 540297); type: functional
# T2 sequence (Q9GZU7 whole entry): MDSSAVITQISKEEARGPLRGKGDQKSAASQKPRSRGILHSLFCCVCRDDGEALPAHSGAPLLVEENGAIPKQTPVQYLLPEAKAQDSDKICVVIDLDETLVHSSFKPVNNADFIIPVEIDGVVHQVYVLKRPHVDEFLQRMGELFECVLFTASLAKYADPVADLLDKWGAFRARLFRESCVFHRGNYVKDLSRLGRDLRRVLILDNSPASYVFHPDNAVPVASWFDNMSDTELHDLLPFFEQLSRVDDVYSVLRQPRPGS
# [10] = biological target: T3, Polyadenylate-binding protein 1 (Homo sapiens, UniProt P11940); assay: MLLE domain peptide-binding blockers, IC50 – biochemical, fluorescence polarization, FITC-PAM2 peptide, dose response (AID 602259); type: functional; conditions: read-out: IC50_Mean
# T3 sequence (P11940 whole entry, the tested form may be a part): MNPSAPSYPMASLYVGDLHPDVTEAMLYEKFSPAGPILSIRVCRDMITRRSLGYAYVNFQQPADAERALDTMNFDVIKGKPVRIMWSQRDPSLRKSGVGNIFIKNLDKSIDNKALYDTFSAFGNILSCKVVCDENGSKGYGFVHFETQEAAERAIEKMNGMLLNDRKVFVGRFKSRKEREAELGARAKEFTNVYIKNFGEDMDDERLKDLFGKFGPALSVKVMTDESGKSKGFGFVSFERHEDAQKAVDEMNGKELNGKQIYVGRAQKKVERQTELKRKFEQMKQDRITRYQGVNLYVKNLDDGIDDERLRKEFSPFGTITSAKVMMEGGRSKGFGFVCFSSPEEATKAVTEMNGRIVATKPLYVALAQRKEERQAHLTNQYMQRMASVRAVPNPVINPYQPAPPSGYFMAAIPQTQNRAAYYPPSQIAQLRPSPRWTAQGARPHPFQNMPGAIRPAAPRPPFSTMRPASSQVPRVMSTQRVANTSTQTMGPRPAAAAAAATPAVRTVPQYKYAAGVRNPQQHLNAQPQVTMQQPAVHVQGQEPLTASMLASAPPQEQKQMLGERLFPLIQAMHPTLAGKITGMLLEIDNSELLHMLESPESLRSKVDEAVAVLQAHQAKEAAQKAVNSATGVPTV
# [11] = biological target: T4, DNA repair protein RAD52 homolog (Homo sapiens, UniProt P43351); type: functional, biochemical
# T4 sequence (P43351 whole entry): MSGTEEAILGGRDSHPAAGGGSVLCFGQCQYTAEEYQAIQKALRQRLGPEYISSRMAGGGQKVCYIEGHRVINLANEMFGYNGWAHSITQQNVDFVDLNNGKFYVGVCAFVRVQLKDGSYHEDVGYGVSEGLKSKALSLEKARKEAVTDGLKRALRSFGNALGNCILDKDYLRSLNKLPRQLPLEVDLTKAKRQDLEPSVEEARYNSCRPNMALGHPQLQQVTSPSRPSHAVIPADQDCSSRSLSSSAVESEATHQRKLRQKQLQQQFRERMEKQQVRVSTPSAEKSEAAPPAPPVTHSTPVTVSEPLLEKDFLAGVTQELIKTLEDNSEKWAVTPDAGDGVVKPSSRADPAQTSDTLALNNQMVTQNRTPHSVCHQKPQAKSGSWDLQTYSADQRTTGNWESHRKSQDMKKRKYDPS
# [12] = biological target: T3, Polyadenylate-binding protein 1; assay: MLLE binding blockers, Cy5 peptide tracer – biochemical, fluorescence polarization, Cy5-PAM2 peptide, secondary, miRNA deadenylation inhibitor project, dose response (AID 602260); type: functional; conditions: read-out: IC50_Mean
# [13] = biological target: Cytochrome P450 3A4 (Homo sapiens, UniProt P08684); conditions: Potency;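 also: confirmatory qHTS run detecting inhibitors and substrates of CYP3A4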
# Chain of Cytochrome P450 3A4 (P08684 whole entry): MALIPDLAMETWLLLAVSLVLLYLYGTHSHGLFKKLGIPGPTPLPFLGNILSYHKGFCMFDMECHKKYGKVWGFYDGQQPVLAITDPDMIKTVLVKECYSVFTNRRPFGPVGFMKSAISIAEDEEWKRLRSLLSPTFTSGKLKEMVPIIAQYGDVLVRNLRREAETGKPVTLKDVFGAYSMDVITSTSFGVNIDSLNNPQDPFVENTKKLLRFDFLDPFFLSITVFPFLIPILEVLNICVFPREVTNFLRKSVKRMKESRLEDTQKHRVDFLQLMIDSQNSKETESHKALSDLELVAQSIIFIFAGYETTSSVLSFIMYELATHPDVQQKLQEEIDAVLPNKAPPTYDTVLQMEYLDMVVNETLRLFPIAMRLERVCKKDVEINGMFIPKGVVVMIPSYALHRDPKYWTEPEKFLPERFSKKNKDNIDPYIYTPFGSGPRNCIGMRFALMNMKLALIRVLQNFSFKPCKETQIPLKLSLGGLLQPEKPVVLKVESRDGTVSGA
# [14] = biological target: T5, Endoribonuclease toxin MazF (Escherichia coli K-12, UniProt P0AE70); assay: activation of MazEF endoribonuclease cleavage – biochemical, fluorescence, single-stranded RNA substrate, uHTS hits, dose response (AID 588481); type: functional
# T5 sequence (P0AE70 whole entry): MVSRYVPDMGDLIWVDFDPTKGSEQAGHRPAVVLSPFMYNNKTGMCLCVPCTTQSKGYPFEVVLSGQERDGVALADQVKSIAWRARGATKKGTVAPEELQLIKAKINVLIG
# [15] = biological target: T5, Endoribonuclease toxin MazF; assay: substrate-only fluorescence increase artefacts – biochemical, single-stranded RNase substrate, counter-screen for MazEF activator project, dose response (AID 588502); type: functional
# [16] = Luminescence Cell-Based Dose Retest to Confirm Inhibitors of Cancer Stem Cells. [Related pubchem assays (depositor defined):AID2717, AID2721]; type: functional; conditions: Homo sapiens
# [17] = system: Vero; assay: cells; type: functional; conditions: Chlorocebus sabaeus
# [18] = biological target: T6, Ubiquitin-conjugating enzyme E2 N (Homo sapiens, UniProt P61088); type: functional;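 also: Dose-response confirmation in a TR-FRET assay detecting UBC13-driven polyubiquitin chain formation, inhibition measured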
# T6 sequence (P61088 whole entry): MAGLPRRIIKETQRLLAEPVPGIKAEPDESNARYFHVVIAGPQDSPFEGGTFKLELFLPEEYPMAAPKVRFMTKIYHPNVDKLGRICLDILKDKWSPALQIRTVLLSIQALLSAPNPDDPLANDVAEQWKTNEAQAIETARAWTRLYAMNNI
# [19] = reduction of Shn3 3'UTR-driven luciferase in osteoblasts – cell-based, Clone20 osteoblasts, firefly luciferase, cherry-picked, dose response (AID 624132); type: functional;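 also: firefly luciferase luminescence from reporter carrying the Shn3 3'UTR in osteoblasts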
# [20] = non-specific 3'UTR reporter inhibition in Clone20-Shn3RL – cell-based, Renilla luciferase, cherry-picked, counter-screen for Shn3 inhibitor project, dose response (AID 624133); type: functional
# [21] = loss of viability in HepG2 cells – cell-based, CellTiter-Glo, cherry-picked, cytotoxicity control for Shn3 inhibitor project, dose response (AID 624134); type: functional
# [22] = viability of uninfected HEp-2 cells – cell-based, HTS, cytotoxicity control for RSV inhibitor project, dose response (AID 2410); type: functional; conditions: human respiratory syncytial virus
# [23] = cells
# [24] = viability of PTEN-deleted HCT116 cells – cell-based, HCT116 PTEN knockout, dose response (AID 1047); type: functional;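 also: HCT116 colon tumor cells with PTEN knocked out; cells exposed to compound for 60 hours before readout; potency for loss of cell viability measured by luminescence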
# [25] = HPDE-C7 pancreatic duct cell viability loss – fluorescence, HTS (AID 430); type: functional, cell-based; conditions: Homo sapiens
# [26] = viability of HCT116 lacking mutant beta-catenin – cell-based, human colon tumor, dose response (AID 1045); type: functional;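 also: HCT116 colon tumor cells with beta catenin knocked out; cells exposed to compound for 60 hours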
# [27] = viability loss of HPDE-C7K cells – cell-based, fluorescence, HTS, primary screen (AID 431); type: functional; conditions: Homo sapiens
smiles,measurement,setting,value
COc1cc2cc3c4cc(OC)c(OC)cc4cc[n+]3cc2cc1OC,GI50,[1],12.6 µM (inactive)
same,GI50,[2],0.881 µM (active)
same,GI50,[3],> 61.9 µM (inactive)
COc1ccccc1N1CCN(S(=O)(=O)Cc2ccccc2Cl)CC1,IC50,[4],> 64 µM (inactive)
Cc1c2cc[n+](CCN3CCCCC3)cc2c(C)c2c1[nH]c1ccc(O)cc12,GI50,[1],1.37 µM (inactive)
same,GI50,[2],0.0111 µM (active)
same,GI50,[3],1.5 µM (inactive)
same,AC50,[5],5.01 µM (inconclusive)
CC(C)Cn1c(N)c(C(=O)COC(=O)c2cnc(Cl)c(Cl)c2)c(=O)n(C)c1=O,IC50,[6],13.2 µM (active)
same,IC50,[7],15.3 µM (not active)
same,CC50,[8],25.7 µM (active)
O=C1NC(=S)NC(=O)C1=Cc1ccc(OCC(=O)N2CCCC2)cc1,IC50,[9],9 µM (active)
NCCc1cc(O)c(O)cc1O [OXIDOPAMINE HYDROCHLORIDE],IC50,[10],> 66 µM (inactive)
same,AC50,[11],4.12 µM (active)
same,IC50,[12],> 66 µM (inactive)
COC(=O)CCCCCN1C(=O)NC(c2ccccc2)C(C(=O)OCc2ccccc2)=C1C (stereo not given),AC50,[13],10 µM (inconclusive)
COc1cccc(N)c1,AC50,[13],31.6 µM (inconclusive)
CCC(=O)NC(=S)Nc1ccc(NC(=O)c2ccc([N+](=O)[O-])cc2)cc1,IC50,[4],> 64 µM (inactive)
Cc1c(CCC(=O)O)c(=O)oc2cc(OCc3ccc(Br)cc3)ccc12,IC50,[9],7.23 µM (active)
CCOC(=O)C(C)Sc1ccc2nnc(-c3ccc(F)cc3)n2n1 (stereo not given),IC50,[4],> 64 µM (inactive)
C#CCN1C(=O)S/C(=C\c2cc3c(cc2OC)OCO3)C1=O,EC50,[14],12.5 µM (active)
same,EC50,[15],17.1 µM (active)
CSc1nc(SC)c2cnn(CC3CO3)c2n1 (stereo not given),GI50,[1],11.5 µM (inactive)
same,GI50,[2],15.6 µM (inactive)
same,GI50,[3],8.2 µM (inactive)
O=C(Nc1ccc(CN2CCOCC2)cc1)c1ccc(-c2ccc(Cl)cc2Cl)o1,AC50,[16],5.22 µM (active)
same,IC50,[4],50 µM (inactive)
CN1CCN(CC(O)(c2ccc(Cl)cc2)c2ccc(Cl)cc2)CC1,CC50,[17],> 25 µM (active)
Cc1nnc(SCC2=C(C(=O)O)N3C(=O)C(NC(=O)Cn4nc(C(F)F)cc4C)C3SC2)s1 (stereo not given),IC50,[9],7.83 µM (active)
CCC1=C2CC[C@H]3C(=O)N(CC(=O)OC)C(=O)[C@H]3[C@H]2[C@@]2(C)/C(=N/CC(=O)OC)OC(=O)N2C1=O,AC50,[13],25.1 µM (inconclusive)
O=C(Nc1cccc(F)c1)c1cc(S(=O)(=O)NCCC2=CCCCC2)ccc1F,IC50,[18],> 20 µM (inactive)
same,AC50,[19],4.16 µM (active)
same,AC50,[20],13.9 µM (active)
same,AC50,[21],39.8 µM (active)
Cc1ccc(S(=O)(=O)N2CCN(C(=O)/C=C/c3ccco3)CC2)cc1,IC50,[9],10.2 µM (active)
Cc1ccc(-c2ccc(/C=N/O)o2)cc1[N+](=O)[O-],CC50,[22],36.3 µM (active)
same,IC50,[23],33.5 µM (active)
CC1(C)Cc2c(C#N)c(N3CCN(C(=O)c4ccco4)CC3)nc(Cc3ccccc3)c2CO1,EC50,[24],23.3 µM (active)
same,EC50,[25],17.2 µM (active)
same,EC50,[26],26 µM (active)
same,EC50,[27],11.8 µM (active)
CCCNC(=O)N1c2ccccc2Sc2ccccc21,CC50,[17],> 25 µM (active)
CNc1[nH]c(=O)[nH]c(=O)c1N=Nc1cc(Cl)ccc1Cl,IC50,[9],11.6 µM (active)
Nc1c(S(=O)(=O)O)cc2cc(S(=O)(=O)O)ccc2c1/N=N/c1ccc(-c2ccc(/N=N/c3c(N)c(S(=O)(=O)O)cc4cc(S(=O)(=O)O)ccc34)c(S(=O)(=O)O)c2)cc1,GI50,[1],> 100 µM (inactive)
same,GI50,[2],> 79.6 µM (inactive)
same,GI50,[3],> 100 µM (inactive)
c1ccc(C(c2ccccc2)[P+](c2ccccc2)(c2ccccc2)c2ccccc2)cc1,GI50,[1],12.4 µM (inactive)
same,GI50,[2],0.382 µM (active)
same,GI50,[3],0.345 µM (active)
O=[N+]([O-])c1ccc(Cl)c(S(=O)(=O)Nc2cccc(-c3ccc(N4CCOCC4)nn3)c2)c1,CC50,[22],37.3 µM (active)
same,IC50,[23],32.5 µM (active)
Cn1c(=O)cc(N)n(Cc2ccccc2)c1=O,AC50,[13],39.8 µM (inconclusive)
Cc1cccc2sc(NC(=O)CN(C)S(=O)(=O)c3ccc(Br)s3)nc12,EC50,[25],12.2 µM (active)
same,EC50,[27],12.2 µM (active)
CN(Cc1cnc2nc(N)nc(N)c2n1)c1ccc(C(=O)NC(CCC(=O)O)C(=O)O)c2ccccc12 (stereo not given),GI50,[1],< 0.01 µM (active)
same,GI50,[2],< 0.01 µM (active)
same,GI50,[3],0.01 µM (active)
CCN(CC)CCCCn1c(-c2ccccc2)nc2c(N3CCOCC3)nc(C)nc21,AC50,[13],7.94 µM (inconclusive)
O=C(CCCOc1ccc(Cl)cc1Cl)Nc1ccccc1C(=O)O,CC50,[22],9.45 µM (active)
same,IC50,[23],5.66 µM (active)
O=c1oc(/C=C/c2ccc([N+](=O)[O-])s2)nc2ccccc12,IC50,[6],10.7 µM (active)
same,EC50,[14],> 99 µM (inactive)
same,EC50,[15],> 99 µM (inactive)
CCC(=O)c1cn(CC(=O)Nc2ccccc2Cl)c2ccccc12,AC50,[19],< 0.26 µM (active)
same,EC50,[14],> 99 µM (inactive)
same,AC50,[20],6.05 µM (active)
same,EC50,[15],> 99 µM (inactive)
Cc1cc(-c2ccc(C(C)C)c(S(=O)(=O)NCc3ccco3)c2)on1,CC50,[17],6.78 µM (active)
COc1cccc2c1C(=O)c1c(O)c3c(c(O)c1C2=O)CC(O)(C(=O)CO)CC3OC1CC(N)C(I)C(C)O1 (stereo not given),GI50,[1],0.547 µM (active)
same,GI50,[2],0.0612 µM (active)
